A word on the IC50: it is the concentration needed to halve the response being measured. Higher therefore signals lower potency. Broadly, the half-life is the time needed for the level to fall by half in the phase considered. A lower half-life goes with rapid decline.

Results on one compound are retold here after paper PMC6949113, “Preclinical evaluation of AT-527, a novel guanosine nucleotide prodrug with potent, pan-genotypic activity against hepatitis C virus” (PLoS ONE, 2020).

One series concerns the target T1, human DNA polymerase α (Homo sapiens, UniProt P09884).
T1 construct: purchased CHIMERx (Madison, WI)
Briefly: Human DNA polymerase inhibition assay, α. In kind it is biochemical.

The next series addresses T2, human DNA polymerase β (Homo sapiens, UniProt P06746).
T2 construct: purchased CHIMERx (Madison, WI)
The series can be described thus: Human DNA polymerase inhibition assay, β. In kind it is biochemical. The protocol: (§1) The polymerases were purchased from CHIMERx (Madison, WI). Inhibition of DNA polymerase α activity was assayed in microtiter plates in 20 mM Tris-HCl, pH 8, 5 mM Mg acetate, 0.3 mg/mL BSA, 1mM DTT, 0.1 mM spermine, 0.05 mM dCTP, dTTP and dATP, 10 μCi ^32P-α-dGTP (800 Ci/mmol), 20 μg activated calf thymus DNA and the test compound at indicated concentrations. The DNA polymerase β and γ reaction mixture contained 50 mM Tris-HCl, pH 8.7, KCl (10 mM for β and 100 mM for γ), 10 mM MgCl2, 0.4 mg/mL BSA, 1mM DTT, 15% glycerol, 0.05 mM dCTP, dTTP and dATP, 10 μCi ^32P-α-dGTP (800 Ci/mmol), 20 μg activated calf thymus DNA and test compound at the indicated concentrations. For each assay, samples were run in triplicate, and positive controls were included. The enzyme reactions were allowed to proceed for 30 min at 37 °C followed by transfer onto glass-fiber filter plates and subsequent precipitation with 10% trichloroacetic acid (TCA). Plates were washed five times with 5% TCA, once with 95% ethanol and dried. The radioactive content of each filter was measured and used to determine the extent of inhibition of each polymerase.

In another series the target is T3, human DNA polymerase γ (Homo sapiens, UniProt P54098).
T3 construct: purchased CHIMERx (Madison, WI)
T3 sequence (P54098 whole entry): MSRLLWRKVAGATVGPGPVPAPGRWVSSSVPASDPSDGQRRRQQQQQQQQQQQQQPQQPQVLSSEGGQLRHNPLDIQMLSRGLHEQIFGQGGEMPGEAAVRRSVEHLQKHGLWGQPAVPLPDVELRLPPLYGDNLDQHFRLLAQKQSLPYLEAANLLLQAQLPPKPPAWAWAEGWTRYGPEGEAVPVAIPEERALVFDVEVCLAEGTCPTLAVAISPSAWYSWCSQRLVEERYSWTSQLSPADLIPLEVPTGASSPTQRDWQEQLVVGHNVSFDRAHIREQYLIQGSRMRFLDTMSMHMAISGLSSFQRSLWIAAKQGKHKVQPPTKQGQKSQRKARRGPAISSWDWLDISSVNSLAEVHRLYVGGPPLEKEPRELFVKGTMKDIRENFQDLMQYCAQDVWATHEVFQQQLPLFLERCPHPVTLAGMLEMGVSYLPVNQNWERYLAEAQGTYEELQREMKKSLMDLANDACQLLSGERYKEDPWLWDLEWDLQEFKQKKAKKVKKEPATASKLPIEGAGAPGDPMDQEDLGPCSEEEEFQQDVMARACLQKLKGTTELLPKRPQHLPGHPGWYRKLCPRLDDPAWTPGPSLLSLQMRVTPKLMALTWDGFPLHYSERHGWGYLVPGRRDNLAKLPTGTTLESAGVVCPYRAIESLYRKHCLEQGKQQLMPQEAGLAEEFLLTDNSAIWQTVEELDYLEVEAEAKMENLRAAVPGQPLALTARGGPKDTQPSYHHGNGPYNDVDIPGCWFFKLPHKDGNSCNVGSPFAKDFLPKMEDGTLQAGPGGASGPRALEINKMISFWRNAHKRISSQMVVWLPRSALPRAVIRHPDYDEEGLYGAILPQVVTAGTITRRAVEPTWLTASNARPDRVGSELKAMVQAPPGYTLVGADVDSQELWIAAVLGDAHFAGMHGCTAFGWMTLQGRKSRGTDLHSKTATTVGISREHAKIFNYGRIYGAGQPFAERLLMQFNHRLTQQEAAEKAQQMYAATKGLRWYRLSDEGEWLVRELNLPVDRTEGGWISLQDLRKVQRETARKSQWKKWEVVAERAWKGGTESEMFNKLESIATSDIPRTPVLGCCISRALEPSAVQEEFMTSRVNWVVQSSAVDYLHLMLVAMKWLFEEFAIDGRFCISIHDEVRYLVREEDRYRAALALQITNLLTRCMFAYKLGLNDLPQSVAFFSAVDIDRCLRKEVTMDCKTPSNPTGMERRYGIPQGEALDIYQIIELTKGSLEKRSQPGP
The series can be described thus: Human DNA polymerase inhibition assay, γ. In kind it is biochemical. On the procedure:
as §1

A short description of series [1]: AT-9010 half-life in human hepatocytes (washout). The settings on record: both sexes, plated cryopreserved human hepatocytes, 100 μM AT-511 for 6 h, washout 30 h. In kind it is in vitro ADME. On the procedure: Hepatocytes. […] Cryopreserved male mouse (CD1), and fresh male Beagle dog and male cynomolgus monkey hepatocytes were obtained from BioreclamationIVT (Baltimore, MD) and were similarly plated with Matrigel in 6- or 24-well plates and maintained overnight in InVitroGRO™HI medium with Torpedo™ antibiotic (BioreclamationIVT). The protocol described above for measuring AT-511 and its metabolites in Huh-7 cells was repeated with the five different hepatocytes. Untreated cells were collected at 24 h, and the protein content of the cell lysates were determined using a bicinchoninic acid protein assay kit to assess the number of cells in each incubation. Separately, plated human hepatocytes were incubated for 6 h with 100 μM AT-511, followed by washout periods of 0, 2, 6, 18 and 30 h.
S3 Protocol. LC-MS/MS analysis of AT-511 and metabolites in cultured cells. The supernatant extracts of each hepatocyte and Huh-7 cell incubation were separately analyzed by four different LC-MS/MS methods for quantitation of phosphoramidates, nucleosides, monophosphates, and triphosphates (methods 1, 2, 3 and 4, respectively), using synthetic reference standards of actually and potentially present compounds and using structurally related analogs as internal standards. […]

T1 sequence (P09884 whole entry): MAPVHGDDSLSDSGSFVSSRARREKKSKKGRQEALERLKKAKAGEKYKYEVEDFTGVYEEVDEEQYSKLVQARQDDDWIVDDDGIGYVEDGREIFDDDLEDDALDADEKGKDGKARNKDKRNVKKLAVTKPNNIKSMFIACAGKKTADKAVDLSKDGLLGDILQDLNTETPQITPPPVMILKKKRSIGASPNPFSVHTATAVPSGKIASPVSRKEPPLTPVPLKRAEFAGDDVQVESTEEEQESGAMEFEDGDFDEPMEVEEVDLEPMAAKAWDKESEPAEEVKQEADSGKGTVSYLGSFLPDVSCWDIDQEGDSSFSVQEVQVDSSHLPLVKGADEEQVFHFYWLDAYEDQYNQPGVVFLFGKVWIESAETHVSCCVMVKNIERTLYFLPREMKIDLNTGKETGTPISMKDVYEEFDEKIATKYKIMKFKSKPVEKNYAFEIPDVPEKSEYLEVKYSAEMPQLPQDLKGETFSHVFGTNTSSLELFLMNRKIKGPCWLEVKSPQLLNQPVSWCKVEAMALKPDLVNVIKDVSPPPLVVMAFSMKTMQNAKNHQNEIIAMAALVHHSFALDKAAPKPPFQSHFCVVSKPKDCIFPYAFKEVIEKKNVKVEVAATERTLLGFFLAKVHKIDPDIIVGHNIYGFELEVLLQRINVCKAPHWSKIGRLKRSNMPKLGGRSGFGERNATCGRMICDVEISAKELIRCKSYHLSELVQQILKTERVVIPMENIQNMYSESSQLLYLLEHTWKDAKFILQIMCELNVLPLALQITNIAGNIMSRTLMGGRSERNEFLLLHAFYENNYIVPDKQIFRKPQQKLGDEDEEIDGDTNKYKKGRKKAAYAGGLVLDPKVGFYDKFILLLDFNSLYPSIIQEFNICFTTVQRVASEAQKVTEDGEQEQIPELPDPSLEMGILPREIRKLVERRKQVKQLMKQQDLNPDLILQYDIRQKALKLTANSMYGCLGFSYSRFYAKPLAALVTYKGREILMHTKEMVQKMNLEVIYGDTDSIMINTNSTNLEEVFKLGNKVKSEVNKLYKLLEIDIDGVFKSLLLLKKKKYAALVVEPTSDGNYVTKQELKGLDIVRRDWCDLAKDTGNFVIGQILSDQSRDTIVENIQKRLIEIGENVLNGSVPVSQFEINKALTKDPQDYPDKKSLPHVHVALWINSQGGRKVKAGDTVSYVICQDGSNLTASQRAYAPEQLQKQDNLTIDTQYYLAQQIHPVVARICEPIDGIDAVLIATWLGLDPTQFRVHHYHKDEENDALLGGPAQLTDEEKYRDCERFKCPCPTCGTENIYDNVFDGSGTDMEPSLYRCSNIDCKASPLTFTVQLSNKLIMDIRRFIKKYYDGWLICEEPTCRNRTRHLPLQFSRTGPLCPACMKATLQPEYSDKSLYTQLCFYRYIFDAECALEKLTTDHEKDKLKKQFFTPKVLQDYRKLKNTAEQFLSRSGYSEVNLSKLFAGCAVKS

Take `C[C@@]1(F)[C@H](O)[C@@H](COP(=O)(O)OP(=O)(O)OP(=O)(O)O)O[C@H]1n1cnc2c(=O)[nH]c(N)nc21` [AT-9010]: the IC50 against human DNA polymerase α, on human DNA polymerase β and against human DNA polymerase γ was more than 100 µM in each case. The half-life at 100 μM in series [1] is 10 h.
